According to publication PMC12022975, “NMR^2-Based Drug Discovery Pipeline Presented on the Oncogenic Protein KRAS” (Journal of the American Chemical Society, 2025):
Where two headings read alike, the source gives them in different places.

Experiments:
KRAS G12V GMP-PNP [1] = target: T1, KRAS G12V GMP-PNP (Homo sapiens, UniProt P01116, G12V); assay: STD-NMR screening of the DSI-poised fragment library; format: binding; conditions: STD-NMR hit mark; mixtures of six, 600 μM per ligand, 12 μM KRAS; hit if S/N ratio greater than 5
T1 construct: His-tag (TEV-cleavable) (cleaved yes); made in house; host or cells: E. coli BL21* DE3
Protocol: The STD-NMR and [^15N,^1H]-HSQC screening of the DSI-poised fragment library was performed on a Bruker Avance III HD 600 MHz spectrometer equipped with a cryoprobe and SampleJet. […] Analysis was performed in TopSpin 4.1 and CcpNMR 3.1.[28]
The DSI-poised fragment library comprises 890 molecules, designed such that analogues are readily accessible on the market and can be quickly synthesized.

KRAS G12V GMP-PNP [2] = target: T1, KRAS G12V GMP-PNP; assay: Ligand-titrated [15N,1H]-HSQC affinity determination (TITAN line shape analysis); format: binding
Protocol: A detailed summary for each ligand can be found in the Supporting Information. The NMR data were processed with nmrpipe, and the affinity was analyzed with TITAN.[29]
The amide signals of L6, V7, T74, and G75 were analyzed using the line shape analysis software TITAN.[29] Additionally, the chemical shift perturbation binding curve was analyzed.
MHz spectrometer equipped with a cryoprobe and SampleJet.
4, 5, 9: [15N, 1H]-sofastHSQC experiments were done on a Bruker Ascend console NEO 500 MHz with a prodigy probe head
titrated to ~100 µM KRAS.
spectrometer equipped with a cryoprobe.
Table SI1: Summary of all [1H, 1H] - NOESY spectra measured for all compounds which a NMR2
(1H) [MS] (1H) [MS] [MS] TIME [MS] [MHZ] TIME PER NOESY [H]

[3] = TITAN analysis of L6, V7, T74, G75 amide signals, no saturation reached, interpret with caution, read-out: KD

Row | STD (KRAS G12V GMP-PNP [1]) | Kd (KRAS G12V GMP-PNP [2]; [3]) [mM] | Structure (SMILES) | Kd (KRAS G12V GMP-PNP [2]) [mM]
1 | √ | 10 | N=c1sccn1CC(=O)Nc1ccc(F)cc1 [compound 4] | –
2 | √ | 15 | COc1ccc(C)cc1NC(=O)Nn1cnnc1 [compound 6] | –
3 | √ | 5.9 | Nc1ccc(S(=O)(=O)Nc2ccccc2)cc1 [compound 7] | –
4 | √ | 3.3 | CNCc1cnn(-c2ccccc2)c1 [compound 9] | –
5 | √ | – | CS(=O)(=O)Cc1nc2ccccc2[nH]1 [compound 11] | –
6 | √ | – | O=C(CN1CCCC1)Nc1cccc(Cl)c1 [compound 12] | –
7 | – | 3.2 | Cc1cc2cc[nH]c2cc1C [compound 14] | –
8 | – | 4.5 | O=C(O)/C=C/c1c[nH]c2ccccc12 [compound 16] | –
9 | √ | 1.2 | c1coc(CNc2nc3ccccc3[nH]2)c1 [fragment 1, C(c1ccco1)Nc1nc(cccc2)c2[nH]1] | –
10 | √ | 5.2 | Cc1[nH]ncc1CNc1ccccc1F [fragment 5, Cc1n[nH]cc1CNc(cccc1)c1F] | –

Row | Structure (SMILES) | STD (KRAS G12V GMP-PNP [1]) | Kd (KRAS G12V GMP-PNP [2]; [3]) [mM] | Kd (KRAS G12V GMP-PNP [2]) [mM]
11 | COc1ccc2sc(N)nc2c1 [compound 10] | √ | – | 5.9
12 | COc1ccc2[nH]cc(CN(C)C)c2c1 [compound 13] | √ | – | –
